Assay results: paper PMC12042115 (mLife, 2025)

System: wild‐type BCG cells
Format: cell-based, M. bovis BCG
Details: up-regulated

O=C(Oc1ccc(Cl)cc1)c1ccc(N2CCOCC2)c([N+](=O)[O-])c1 [GDI‐5755]
Mean_Ratio (GDI5755_3d vs DMSO_3d), protein BCG_3567c (A0A0H3M9P9, Mtb Rv3503c, Ferredoxin, fdxD): 1.7 | Mean_Ratio (GDI5755_3d vs DMSO_3d), protein BCG_0108c (A0A0H3M9Q4, Mtb Rv0077c, Probable oxidoreductase): 1.7 | Mean_Ratio (GDI5755_3d vs DMSO_3d), protein BCG_0192 (A0A0H3M9W8, Mtb Rv0156, proton-translocating NAD(P)(+) transhydrogenase,pntAb): 1.4 | Mean_Ratio (GDI5755_3d vs DMSO_3d), protein BCG_0727 (A0A0H3M257, Mtb Rv0678, Transcriptional regulator, MmpR5): 1.5 | Mean_Ratio (GDI5755_3d vs DMSO_3d), protein BCG_0761 (A0A0H3M268, Mtb Rv0711, Possible arylsulfatase atsA): 2.1 | Mean_Ratio (GDI5755_3d vs DMSO_3d), protein BCG_0463c (A0A0H3M270, Mtb Rv0424c, Uncharacterized protein): 1.4 | Mean_Ratio (GDI5755_3d vs DMSO_3d), protein BCG_0835 (A0A0H3M322, Mtb Rv0784, Deacetylase): 1.4 | Mean_Ratio (GDI5755_3d vs DMSO_3d), protein BCG_0351 (A0A0H3M331, Mtb MRA_0320, Uncharacterized protein): 1.5 | Mean_Ratio (GDI5755_3d vs DMSO_3d), protein BCG_0391 (A0A0H3M380, Mtb Rv0352, Chaperone protein DnaJ): 1.5 | Mean_Ratio (GDI5755_3d vs DMSO_3d), protein BCG_1609 (A0A0H3M480, Mtb Rv1557, conserved transmembrane transport protein mmpL6): 1.6 | Mean_Ratio (GDI5755_3d vs DMSO_3d), protein BCG_2010c (A0A0H3M561, Mtb Rv1993c, DUF1490 family protein): 1.8 | Mean_Ratio (GDI5755_3d vs DMSO_3d), protein BCG_2346c (A0A0H3M622, Mtb Rv2325c, Energy-coupling factor transporter transmembrane protein EcfT): 1.8 | Mean_Ratio (GDI5755_3d vs DMSO_3d), protein BCG_2009c (A0A0H3M639, Mtb Rv1992c, Probable metal cation transporter P-type atpase G ctpG): 1.3 | Mean_Ratio (GDI5755_3d vs DMSO_3d), protein BCG_1549 (A0A0H3M660, Mtb MRA_1496, Conserved membrane protein): 1.5 | Mean_Ratio (GDI5755_3d vs DMSO_3d), protein BCG_2360c (A0A0H3M719, Mtb Rv2338c, Possible molybdopterin biosynthesis protein moeW): 1.4 | Mean_Ratio (GDI5755_3d vs DMSO_3d), protein BCG_2455 (A0A0H3M775, Mtb Rv2436, Ribokinase, rbsK): 1.3 | Mean_Ratio (GDI5755_3d vs DMSO_3d), protein BCG_0465c (A0A0H3M812, Mtb MRA_0431, Possible transmembrane protein): 1.7 | Mean_Ratio (GDI5755_3d vs DMSO_3d), protein BCG_0517 (A0A0H3M881, Mtb Rv0476, Possible conserved transmembrane protein): 1.4 | Mean_Ratio (GDI5755_3d vs DMSO_3d), protein BCG_2934c (A0A0H3M896, Mtb Rv2913c, Possible D-amino acid aminohydrolase): 1.4 | Mean_Ratio (GDI5755_3d vs DMSO_3d), protein BCG_0993 (A0A0H3M955, Mtb Rv0939, Possible bifunctional enzyme: 2-hydroxyhepta-2,4-diene-1,7-dioate isomerase + cyclase/dehydrase): 1.3 | Mean_Ratio (GDI5755_3d vs DMSO_3d), protein BCG_3532 (A0A0H3M969, HNH nuclease domain-containing protein): 1.4 | Mean_Ratio (GDI5755_3d vs DMSO_3d), protein BCG_3038 (A0A0H3MA42, Mtb Rv3016, Probable lipoprotein lpqA): 1.3 | Mean_Ratio (GDI5755_3d vs DMSO_3d), protein BCG_0289c (A0A0H3MA45, Mtb Rv0251c, HSP20 family protein/ Heat stress induced ribosome-binding protein A,acr2): 3.9 | Mean_Ratio (GDI5755_3d vs DMSO_3d), protein BCG_3881 (A0A0H3MA52, Mtb Rv3819, Uncharacterized protein): 1.4 | Mean_Ratio (GDI5755_3d vs DMSO_3d), protein BCG_3758 (A0A0H3MAA8, Mtb Rv3699, Methyltransferase domain-containing protein): 1.3 | Mean_Ratio (GDI5755_3d vs DMSO_3d), protein BCG_0380 (A0A0H3MAC3, Mtb Rv0341, Isoniazid inductible gene protein iniB): 1.7 | Mean_Ratio (GDI5755_3d vs DMSO_3d), protein BCG_0413c (A0A0H3MAE2, Mtb Rv0375c, carbon monoxyde dehydrogenase (Medium chain)): 1.6 | Mean_Ratio (GDI5755_3d vs DMSO_3d), protein BCG_0595c (A0A0H3MAN8, Mtb Rv0550c, Antitoxin VapB3): 1.4 | Mean_Ratio (GDI5755_3d vs DMSO_3d), protein BCG_3239 (A0A0H3MAP0, Conserved hypothetical alanine valine rich protein): 1.4 | Mean_Ratio (GDI5755_3d vs DMSO_3d), protein BCG_3281c (A0A0H3MAS0, Mtb Rv3252c, transmembrane alkane 1-monooxygenase alkB): 1.5 | Mean_Ratio (GDI5755_3d vs DMSO_3d), protein BCG_3298 (A0A0H3MAT3, Mtb Rv3269, peptidoglycan-based cell wall/chaperonin-like protein,pacL1): 2.3 | Mean_Ratio (GDI5755_3d vs DMSO_3d), protein BCG_3319c (A0A0H3MAV3, Mtb Rv3290c, L-lysine 6-transaminase, lat): 1.7 | Mean_Ratio (GDI5755_3d vs DMSO_3d), protein BCG_3928 (A0A0H3MAW6, Mtb Rv3865, ESX-1 secretion-associated protein EspF): 1.6 | Mean_Ratio (GDI5755_3d vs DMSO_3d), protein BCG_0725c (A0A0H3MAX0, Mtb Rv0676c,, conserved transmembrane transport protein mmpL5): 1.6 | Mean_Ratio (GDI5755_3d vs DMSO_3d), protein BCG_0774 (A0A0H3MAY5, Mtb Rv0724, Possible protease IV sppA (Endopeptidase IV)): 1.4 | Mean_Ratio (GDI5755_3d vs DMSO_3d), protein BCG_3476 (A0A0H3MB64, Mtb Rv3406, Probable dioxygenase): 1.6 | Mean_Ratio (GDI5755_3d vs DMSO_3d), protein BCG_1890c (A0A0H3MB87, Mtb Rv1854c, NADH dehydrogenase ndh): 1.5 | Mean_Ratio (GDI5755_3d vs DMSO_3d), protein BCG_3590 (A0A0H3MBE7, Mtb Rv3526, Rieske-type oxygenase): 1.4 | Mean_Ratio (GDI5755_3d vs DMSO_3d), protein BCG_2026 (A0A0H3MBK2, Mtb Rv2009, Antitoxin VapB15, BCG_2026): 1.4 | Mean_Ratio (GDI5755_3d vs DMSO_3d), protein BCG_2056c (A0A0H3MBM9, Mtb MRA_2052, conserved transmembrane protein): 1.4 | Mean_Ratio (GDI5755_3d vs DMSO_3d), protein BCG_1028c (A0A0H3MBR5, Mtb Rv0974c, Probable acetyl-/propionyl-coa carboxylase (Beta subunit) accD2): 1.4 | Mean_Ratio (GDI5755_3d vs DMSO_3d), protein BCG_3824c (A0A0H3MBY6, Mtb Rv3765c, Two component transcriptional regulatory protein，TcrX): 1.4 | Mean_Ratio (GDI5755_3d vs DMSO_3d), protein BCG_1101c (A0A0H3MBZ0, Mtb Rv1043c, Serine protease，BCG_1101c): 1.4 | Mean_Ratio (GDI5755_3d vs DMSO_3d), protein BCG_2613 (A0A0H3MCY6, Mtb Rv2590, Carboxylic acid reductase,fadD9): 1.6 | Mean_Ratio (GDI5755_3d vs DMSO_3d), protein BCG_2656 (A0A0H3MD16, Mtb Rv2629, Uncharacterized protein): 1.4 | Mean_Ratio (GDI5755_3d vs DMSO_3d), protein BCG_3528 (A0A0H3MEV5, Mtb Rv3463, Luciferase-like domain-containing protein): 1.4 | Mean_Ratio (GDI5755_3d vs DMSO_3d), protein BCG_2486c (A0A0H3MFK9, Mtb Rv2466c, DSBA-like thioredoxin domain-containing protein): 1.7 | Mean_Ratio (GDI5755_3d vs DMSO_3d), protein BCG_2502c (A0A0H3MFM6, Mtb Rv2484c, Diacylglycerol O-acyltransferase): 1.4 | Mean_Ratio (GDI5755_3d vs DMSO_3d), protein BCG_2658 (A0A0H3MG12, Mtb Rv2631, tRNA-splicing ligase RtcB): 1.4 | Mean_Ratio (GDI5755_3d vs DMSO_3d), protein BCG_2794c (A0A0H3MGD9, Mtb Rv2777c, Metal-dependent hydrolase): 1.5 | Mean_Ratio (GDI5755_3d vs DMSO_3d), protein BCG_2984 (A0A0H3MGS1, Mtb Rv2963, integral membrane protein): 1.5 | Mean_Ratio (GDI5755_3d vs DMSO_3d), protein BCG_3119c (A0A0H3MH35, Mtb Rv3094c, Hydroxylase): 1.4 | Mean_Ratio (GDI5755_3d vs DMSO_3d), protein BCG_3299 (A0A0H3MHJ0, Mtb Rv3270, metal cation-transporting P-type atpase C ctpC): 1.5 | Mean_Ratio (GDI5755_3d vs DMSO_3d), protein BCG_3591 (A0A0H3MID2, Mtb Rv3527, Uncharacterized protein): 1.6 | Mean_Ratio (GDI5755_3d vs DMSO_3d), protein BCG_3917c (A0A0H3MJE2, Mtb Rv3854c, Monooxygenase ethA): 1.5 | Mean_Ratio (GDI5755_3d vs DMSO_3d), protein BCG_0095 (A1KEN2, Mtb Rv0064, UPF0182 protein BCG_0095): 1.4 | Mean_Ratio (GDI5755_3d vs DMSO_3d), protein BCG_0181 (A1KEW5, Mtb Rv0145, S-adenosyl-L-methionine-dependent methyltransferase BCG_0181): 1.8 | Mean_Ratio (GDI5755_3d vs DMSO_3d), protein BCG_0182 (A1KEW6, Mtb Rv0146, Putative S-adenosyl-L-methionine-dependent methyltransferase): 2.8 | Mean_Ratio (GDI5755_3d vs DMSO_3d), protein BCG_0248 (A1KF31, Mtb Rv0211, Phosphoenolpyruvate carboxykinase [GTP], pckG): 2.3 | Mean_Ratio (GDI5755_3d vs DMSO_3d), protein BCG_0389 (A1KFH2, Mtb Rv0350, Chaperone protein DnaK/Heat shock protein 70): 1.5 | Mean_Ratio (GDI5755_3d vs DMSO_3d), protein BCG_0390 (A1KFH3, Mtb Rv0351, Protein GrpE/HSP-70 cofactor): 1.4 | Mean_Ratio (GDI5755_3d vs DMSO_3d), protein BCG_0516 (A1KFU9, Mtb Rv0475, Heparin-binding hemagglutinin): 1.3 | Mean_Ratio (GDI5755_3d vs DMSO_3d), protein BCG_0605c (A1KG37, Mtb Rv0560c, Benzoquinone methyltransferase/Rv0560c/htm): 2.5 | Mean_Ratio (GDI5755_3d vs DMSO_3d), protein BCG_0883 (A1KGW3, Mtb Rv0830, S-adenosyl-L-methionine-dependent methyltransferase): 1.9 | Mean_Ratio (GDI5755_3d vs DMSO_3d), protein BCG_1036 (A1KHB7, Mtb Rv0981, Response regulator MprA): 1.4 | Mean_Ratio (GDI5755_3d vs DMSO_3d), protein BCG_1284 (A1KI12, Mtb Rv1224, Sec-independent protein translocase protein TatB): 1.4
